Here are results for seven molecules from US20150315188A1, “COMPOUNDS AND METHODS FOR TREATMENT OF HYPERTENSION” (MEDIVATION TECHNOLOGIES, INC., priority 2012, published 2015).

For data set [1], the target named is T1, Human adrenergic α2A receptor (Homo sapiens, UniProt P08913).
T1 sequence (P08913 1-465): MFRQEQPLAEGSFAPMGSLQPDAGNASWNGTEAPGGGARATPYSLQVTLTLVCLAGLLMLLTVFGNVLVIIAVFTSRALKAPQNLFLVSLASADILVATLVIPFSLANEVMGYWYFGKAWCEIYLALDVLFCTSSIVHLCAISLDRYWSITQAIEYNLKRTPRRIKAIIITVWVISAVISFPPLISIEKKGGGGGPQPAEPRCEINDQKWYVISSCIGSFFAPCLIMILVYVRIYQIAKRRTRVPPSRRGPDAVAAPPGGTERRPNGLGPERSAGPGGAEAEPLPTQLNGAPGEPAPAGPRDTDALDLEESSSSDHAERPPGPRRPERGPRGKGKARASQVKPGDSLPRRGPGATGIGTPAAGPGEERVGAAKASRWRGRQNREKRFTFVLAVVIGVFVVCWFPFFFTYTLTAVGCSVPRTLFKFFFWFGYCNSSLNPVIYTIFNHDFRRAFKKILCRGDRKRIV
The data set is described as follows: Radioligand binding, adrenergic α2A (Protocol Group A). Details: expressed in transfected cells; host or cells: insect Sf9 cells. To be noted: 0.1 μM compound, [3H]MK-912, read-out: percent inhibition of specific binding, Adrenergic α2A. The method, then:
To evaluate in radioligand binding assays the activity of compounds of the invention, human recombinant adrenergic α2A receptor expressed in insect Sf9 cells (Uhlen, S. et al, J. Pharmacol. Exp. Ther. 271:1558, 1994) in a modified Tris-HCl buffer (50 mM Tris-HCl, pH 7.4, 12.5 mM MgCl2, 2 mM EDTA) was used. Compounds of invention were incubated with 1 nM [^3H]MK-912 for 60 min at 25° C. MK912 is (2S-trans)-1,3,4,5′,6,6′,7,12b-octahydro-1′,3′-dimethyl-spiro[2H-benzofuro[2,3-a]quinolizine-2,4′(1′H)-pyrimidin]-2′(3′H)-one hydrochloride. Non-specific binding was estimated in the presence of 10 μM WB-4101 (2-(2,6-Dimethoxyphenoxyethyl)aminomethyl-1,4-benzodioxane hydrochloride). Receptor proteins were filtered and washed, the filters were then counted to determine [^3H]MK-912 specifically bound. Compounds were screened at 1 μM or lower, using 1% DMSO as vehicle. Compounds of the invention were tested in this biochemical assay and percent inhibition of specific binding was determined. Biochemical assay results are presented as the percent inhibition of specific binding in Table B1a.

Data set [2] is described as follows: Stability in the presence of rat hepatocytes. The format is in vitro ADME, Sprague Dawley rat. To be noted: male, Sprague Dawley, rat, cryopreserved hepatocytes, pH 7.4, rat hepatocytes, 37° C., average of duplicates, ^a = 0-120 minute time points, read-out: T1/2 Rat. Here is the method: (§1) Compounds of the invention were tested for stability in the presence of dog, rat and human hepatocytes over a 4 hour period by LC/MS/MS. The study was performed by Integrated Analytical Solutions, Berkeley, Calif.
(§2) Reference Standards and Solutions: Compounds of the invention were stored as powders at ambient temperature in a desiccator and protected from light. Reference stock solutions of Compound Nos. 50a, 50b, 79a, 82, 91a and 178d, as 20 mM in DMSO were prepared and subsequently diluted to 2 mM in MeOH to provide working stock solutions (WSS). Unused standard solutions were stored at −20° C.
(§3) Hepatocyte Preparation: Human (mixed gender), Beagle dog (male) and Sprague Dawley rat (male) cryopreserved hepatocytes were purchased from Life Technologies Corporation. Hepatocytes were removed from liquid nitrogen, quickly thawed in a 37° C. water bath and transferred to Hepatocyte Thawing/Plating Medium (Cryopreserved Hepatocyte Recovery Medium, CHRM, Life Technologies Inc.). The cells were pelleted by slow speed centrifugation (˜100×g, 6 min) and resuspended at a high cell density. Hepatocyte viability was determined by trypan blue exclusion. Hepatocyte incubation medium (Life Technologies, Inc.) was added to generate a cell density of 2.0×10^6 cells/mL.
(§4) Hepatocyte Incubations for Stability: The 2 mM WSS was diluted 1 in 200 in hepatocyte incubation medium (pH 7.4) to 10 μM. A solution containing control compounds was prepared similarly to contain 10 μM each of dextromethorphan and testosterone. The solutions of test compounds and controls at 10 μM in hepatocyte incubation medium were pre-incubated at 37° C. for 10 min. Aliquots (250 μL) of hepatocyte suspensions (at 2.0×10^6 cells/mL) were transferred to appropriate 48-well plates and pre-incubated at 37° C. for 10 minutes. Metabolism was initiated by adding 250 μL pre-incubated medium (containing test drug) to wells containing cells. A negative control reaction excluding hepatocytes was used to monitor aqueous stability and/or non-specific adsorption. The final reaction mixtures contained 5 μM of test or control compound and 1.0×10^6 cells/mL. All reactions were performed in duplicate and carried at 37° C. in an incubator. Dextromethorphan and testosterone were used as control drugs to verify hepatocyte activity.
(§5) Aliquots were removed from each metabolism reaction at 0, 0.5, 2 and 4 hours. The reactions were terminated by adding each aliquot to a vessel containing 2× volumes (80 μL) of Internal Standard Solution (acetonitrile containing 50 ng/mL 2-(2,8-dimethyl-3,4-dihydro-1H-pyrido[4,3-b]indol-5(2H)-yl)-1-(pyridin-4-yl)ethanol (ISS1), 50 ng/mL of 2-(2,8-dimethyl-3,4-dihydro-1H-pyrido[4,3-b]indol-5(2H)-yl)-1-(piperidin-1-yl)ethanone (ISS2) and 5 ng/mL diphenhydramine. Terminated reactions were centrifuged at 6000 g for 30 mins at 4° C. to remove the precipitated proteins and cell debris. Following centrifugation, 20 μL of each supernatant was transferred to a deep-well microplate and diluted with 5× volumes (100 μL) of 0.2% formic acid in water. Compound 178d samples were diluted with 5× volumes (100 μL) of 0.1% HFBA in water. Samples were analyzed by LC/MS/MS.
(§6) Calculation of Metabolism Parameters: Percent remaining was measured by dividing the analyte/IS peak area ratio at the designated sample time by the peak area ratio at time 0. ISS1 served as the IS for Compound No. 178d. ISS2 served as the IS for Compound nos. 50a, 50b, 79a, 82 and 91a. The metabolic half-life (T1/2) was calculated using all time points unless otherwise noted. The T1/2 values were calculated as 0.693/k, where k is the slope of the log analyte/internal standard peak area ratio versus time. Metabolism rate was calculated by dividing the starting concentration of substrate by the concentration of hepatocytes, then dividing by the T1/2 value.

Data set [3] in a line: Stability in the presence of dog hepatocytes. To be noted: male, Beagle, dog, cryopreserved hepatocytes, pH 7.4, dog hepatocytes, 37° C., average of duplicates, ^a = 0-120 minute time points, read-out: T1/2 Dog. Type of data set: in vitro ADME, Beagle dog. Here is the method:
as §1, §2, §3, §4, §5, §6

A short description of data set [4]: Stability in the presence of human hepatocytes. The format is in vitro ADME. To be noted: both sexes, human, cryopreserved hepatocytes, pH 7.4, human hepatocytes, 37° C., average of duplicates, ^a = 0-120 minute time points, read-out: T1/2 Human. The method, then: as §1, §2, §3, §4, §5, §6

As to `Cc1ccc2c(c1)c1c(n2CC(OC(=O)N2CCCC2)c2ccncc2)CCN(C)C1` (single isomer, unassigned) [4b], the inhibition at 0.1 µM in data set [1] is 28%.
Same read-out and setting: as for `Cc1ccc2c(c1)c1c(n2CC(C)(O)c2ccc(F)nc2)CCN2CCCC12` (single isomer, unassigned) [6a], the figure is 59%.
As to `Cc1cc2c3c(n(CC(C)(O)c4ccncc4)c2cc1Cl)CCN1CCCC31` (single isomer, unassigned) [50a], the half-life at 5 µM in data set [2] is 146 min; in data set [3] it was 122 min; in data set [4], 115 min.
On to `Cc1cc(Cl)c2c(c1)c1c(n2CC(C)(O)c2ccncc2)CCN2CCCC12` (single isomer, unassigned) [91a], for which the results for the half-life at 5 µM in data set [2], in data set [3] and in data set [4] were 169 min, 82 min and 138 min, respectively.
On the same counts, the results for `Cc1ccc2c(c1)c1c(n2CC(O)c2ccncc2)CCN2CCCC12` (single isomer, unassigned) [Compound No. 178d] are greater than 240 min, 240 min and 134 min.
For the molecule `Cc1cc(F)c2c(c1)c1c(n2CC(C)(O)c2cccnc2)CCN2CCCC12` (centres unmarked) [Compound No. 79a], the half-life at 5 µM is 210 min in data set [2], 181 min in data set [3] and greater than 240 min in data set [4].
As for `Cc1ccc2c(c1)c1c(n2C[C@@H](OC2CCCC2)c2ccncc2)CCN2CCC[C@H]12` [compound 82, (11cR)-7-[(25)-2-(cyclopentoxy)-2-(4-pyridyl)ethyl]-10-methyl-1,2,3,5,6,11c-hexahydroindolizino[7,8-b]indole], the half-life at 5 µM in data set [2] came out at 46 min; in data set [3], 48 min; in data set [4], 49 min.
